Source: publication PMC3458020, “High-Throughput Screening for Novel Inhibitors of Neisseria gonorrhoeae Penicillin-Binding Protein 2” (PLoS ONE, 2012)
pIC50: −log10 of the molar value. Like-named read-outs stand apart in the source and are kept apart here.

How the values were obtained:
N. gonorrhoeae PBP 2 [1] = biological target: T1, N. gonorrhoeae PBP 2 (Neisseria gonorrhoeae, UniProt P08149); assay: FP-based concentration-response competition assay with Bocillin-FL; format: binding; conditions: 1 µM PBP 2, 1 µM Bocillin-FL
T1 construct: A soluble construct of wild-type PBP 2; made in house
T1 sequence (P08149 44-581 limits assumed): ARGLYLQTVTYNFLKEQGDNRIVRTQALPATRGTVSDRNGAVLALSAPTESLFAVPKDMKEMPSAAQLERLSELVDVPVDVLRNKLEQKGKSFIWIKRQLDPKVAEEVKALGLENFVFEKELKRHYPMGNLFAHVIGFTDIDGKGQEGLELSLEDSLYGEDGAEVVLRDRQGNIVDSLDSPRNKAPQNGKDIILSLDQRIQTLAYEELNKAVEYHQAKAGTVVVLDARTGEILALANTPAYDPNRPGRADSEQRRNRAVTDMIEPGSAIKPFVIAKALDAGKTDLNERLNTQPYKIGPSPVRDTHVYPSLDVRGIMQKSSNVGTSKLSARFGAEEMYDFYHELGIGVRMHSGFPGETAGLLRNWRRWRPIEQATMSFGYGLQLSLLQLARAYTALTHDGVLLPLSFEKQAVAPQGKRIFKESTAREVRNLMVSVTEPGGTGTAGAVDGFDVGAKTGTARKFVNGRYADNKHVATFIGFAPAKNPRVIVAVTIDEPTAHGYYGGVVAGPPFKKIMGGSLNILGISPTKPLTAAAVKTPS
Protocol: (§1) A soluble construct of wild-type PBP 2 from the penicillin-susceptible strain of N. gonorrhoeae FA19 was expressed and purified as described previously. Bocillin FL™ was obtained from Invitrogen Inc. (Carlsbad, CA). Penicillin G and γ-Globulins from bovine blood (BGG) were purchased from Sigma (St. Louis, MO). Prior to use, all reagents were diluted in an assay buffer comprising 50 mM potassium phosphate, pH 8, and 0.1 mg/ml BGG. The DIVERSet library of 50,080 small lead compounds from ChemBridge Corporation (San Diego, CA) was provided by the MUSC Drug Discovery Core (DDC). Three laboratory strains of N. gonorrhoeae–FA19 [28], penicillin-resistant FA6140 [29], and cephalosporin-intermediate resistant Ceph^I strain 35/02 [30]–were from the laboratory collection of R. Nicholas (UNC-Chapel Hill).
(§2) Measurements of fluorescence and FP were performed on a Spectramax M5 microplate reader (Molecular Devices, Sunnyvale, CA) with excitation and emission wavelengths of 485 nm and 520 nm, respectively, using a 515 nm filter to block residual excitation light and to minimize background interference. Black, shallow 384-well micro plates (ProxiPlate ™ –384 F Plus, PerkinElmer) were used to record data. To minimize the polarization effects from any fluorophore bound to the surface of the well, both excitation and emission data were recorded from the top of the well. Reading time was 100 ms per well. Fluorescence polarization was quantified in millipolarization units (mP) according to the equation, mP = 1000×[(Iv − G.Ih)/(Iv + G.Ih)], where Iv and Ih are parallel and perpendicular emission intensity measurements, respectively, corrected for background (buffer), and G is the instrument-dependent correction coefficient, defined as a ratio of sensitivities of the detection system for vertically and horizontally polarized light. Using the equation G = Iv/Ih and SoftMax® Pro Data Acquisition & Analysis Software (Molecular Devices, Sunnyvale, CA), the G-factor was determined with dilution series of Bocillin-FL-only (free tracer). The assay window (ΔmP) was defined as the difference between protein-tracer sample and free-tracer, i.e. ΔmP = mPs – mPfree, and is a measure of the maximum specific binding.
To evaluate the performance of the assay, steady-state concentration-response experiments were carried out using penicillin G in a competition assay with Bocillin-FL. Penicillin G (0.05–1000 µM) was mixed with 1 µM PBP 2 and 1 µM Bocillin-FL, followed by a 1 hr incubation. The positive (Pc) and negative (Nc) controls were defined as the FP of the Bocillin-FL - protein and of the free tracer, respectively, in the absence of penicillin G. The FP of the Bocillin-FL - protein at 100 µM penicillin G was defined as a displaced tracer control (Dc). Since DMSO was used as a solvent in the compound library, the effect of 10% DMSO on the FP-binding assay was also determined. Data points were normalized to the maximum specific binding, which defines complete saturation of PBP 2 by Bocillin-FL in the absence of penicillin G, and IC50 values were determined using non-linear regression analysis using GraphPad Prism version 4.00 for Windows (GraphPad Software, Inc, San Diego, CA).
For the FP experiments, 0.01–200 µM of each potential hit was incubated with PBP 2 (1 µM) for 1 h, followed by an additional 30 min incubation with 1 µM Bocillin-FL to detect the residual activity of the labeled penicillin binding. For the SDS-PAGE-based concentration-response experiments, PBP 2 (1 µM) in 50 mM sodium phosphate, 0.01% Triton X-100, pH 8 was incubated with 0.05–1000 µM of a compound for 1 h, followed by additional 15 min incubation with 10 µM Bocillin-FL. The reaction was stopped by mixing each sample with 5 X SDS-loading buffer, followed by boiling for 2 min. The samples were submitted to electrophoresis on 10% Mini-Protean TGX™ SDS-PAGE gels (Bio-Rad, Hercules, CA) to separate bound PBP 2 from free ligand. […]

N. gonorrhoeae FA19 = assay: MIC on GCB agar plates, strain FA19; format: cell-based; conditions: Neisseria gonorrhoeae
Protocol: (§3) Three strains of N. gonorrhoeae were used in susceptibility tests: 1) FA19, a penicillin-and cephalosporin-susceptible strain; 2) FA6140, a penicillin-resistant but cephalosporin-susceptible strain; and 3) 35/02, a penicillin-resistant and cephalosporin intermediate-resistant strain. The disc diffusion zone method was applied for preliminary testing of “hits” identified in the screening process. For this method, 100 µl of a cell suspension (∼1×10^7 bacteria) was added to 3 ml of GCB top agar (GC Broth containing 0.75% agar) at 50 °C, which was then added to GCB plates and allowed to solidify. Five µl of each compound (5 µg) was added separately to antibiotic susceptibility discs (BBL™, BD, Franklin Lakes, NJ), the discs were placed on top of plates, and the plates were incubated overnight in a 4% CO2 incubator at 37 °C. Those compounds that produced a visible zone of inhibition were then tested for their MICs on agar plates as described. Briefly, GCB agar plates containing increasing amounts of the tested compounds were spotted with 5×10^4 cells. The lowest concentration of the test compound that prevented growth of <5 colonies was defined as the MIC. These experiments were repeated three times, with each experiment producing similar results.

N. gonorrhoeae PBP 2 [2] = biological target: T1, N. gonorrhoeae PBP 2; assay: FP high-throughput screening assay (Bocillin-FL binding to PBP 2); parameters: Inhibition (%) of Bocillin-FL binding to PBP 2: concentration or dose not given beside the values; conditions: four replicates; for Compound (mP) (mean ± SD): FP signal of individual compound with PBP 2 and Bocillin-FL; for Inhibition (%) of Bocillin-FL binding to PBP 2: individual compounds
Protocol: as §1, §2
HTS screening against the ChemBridge DIVERSet library was carried out under the following conditions: 1 µl of each compound (10% DMSO final) in duplicate was pre-incubated with 9 µl of PBP 2 for 1 h at room temperature, followed by additional 30 min incubation with 2 µl Bocillin-FL (0.87 µM PBP2∶ 1 µM Bocillin-FL final). In addition to samples with the compounds, each plate also contained 2 background wells (12 µl buffer only), and at least 4 wells each for Pc, Nc, and Dc reactions. All samples used for background measurements or controls included 10% DMSO. Initial screening was carried out with 10 mM cocktails of 10 compounds (giving a final concentration of 100 µM for each compound). […] The auto fluorescence of each compound was also tested individually.

N. gonorrhoeae 35/02 = assay: MIC on GCB agar plates, strain 35/02; format: cell-based; conditions: Neisseria gonorrhoeae
Protocol: as §3

N. gonorrhoeae PBP 2 [3] = biological target: T1, N. gonorrhoeae PBP 2; assay: SDS-PAGE-based concentration-response assay with Bocillin-FL (0.01% Triton X-100); format: binding
Protocol: as §1
For the FP experiments, 0.01–200 µM of each potential hit was incubated with PBP 2 (1 µM) for 1 h, followed by an additional 30 min incubation with 1 µM Bocillin-FL to detect the residual activity of the labeled penicillin binding. For the SDS-PAGE-based concentration-response experiments, PBP 2 (1 µM) in 50 mM sodium phosphate, 0.01% Triton X-100, pH 8 was incubated with 0.05–1000 µM of a compound for 1 h, followed by additional 15 min incubation with 10 µM Bocillin-FL. The reaction was stopped by mixing each sample with 5 X SDS-loading buffer, followed by boiling for 2 min. The samples were submitted to electrophoresis on 10% Mini-Protean TGX™ SDS-PAGE gels (Bio-Rad, Hercules, CA) to separate bound PBP 2 from free ligand. At least two independent reactions were performed in duplicate at each concentration of an inhibitor. Gels were visualized by UV using a Kodak EDAS 290 imaging system (Scientific Imaging Systems Eastman Kodak, New Haven, CT, USA) and the protein bands were stained with Coomassie to verify equal loading. Densitometry was performed with ImageJ 1.37v program (National Institutes of Health, USA, http://rsb.info.nih.gov/ij/). In both methods, data points were normalized to the maximum value of the fluorescence intensity, which defines complete saturation of PBP 2 by Bocillin-FL in the absence of compound, and IC50 values of the inhibitors were defined as the concentration of a compound at 50% of the residual activity of Bocillin-FL and calculated using GraphPad Prism (see above).

N. gonorrhoeae FA6140 = assay: MIC on GCB agar plates, strain FA6140; format: cell-based; conditions: Neisseria gonorrhoeae
Protocol: as §3

PBP 2 = biological target: T2, PBP 2 (Neisseria gonorrhoeae, UniProt P08149); assay: Mass spectrometry test for covalent interaction with PBP 2; conditions: data not shown
T2 construct: A soluble construct of wild-type PBP 2; made in house
T2 sequence (P08149 44-581 limits assumed): as above

[4] = IC50 measured by FP, 0.01–200 µM compound, four replicates
[5] = IC50, SDS-PAGE assay, 1 µM PBP 2, 10 µM Bocillin-FL, 0.01% Triton X-100
[6] = IC50 measured by SDS-PAGE, 0.01% Triton X-100, 1 µM PBP 2, 10 µM Bocillin-FL, two independent experiments
[7] = penicillin- and cephalosporin-susceptible strain FA19, read-out: MIC FA19
[8] = penicillin-resistant, cephalosporin intermediate-resistant strain 35/02, read-out: MIC 35/02
[9] = penicillin-resistant, cephalosporin-susceptible strain FA6140, read-out: MIC FA6140

Row | SMILES | pIC50 (N. gonorrhoeae PBP 2 [1]; IC50 of penicillin G for PBP 2 (FP-based competition assay), with 10% DMSO) | pIC50 (N. gonorrhoeae PBP 2 [1]; IC50 of penicillin G for PBP 2 (FP-based competition assay), without DMSO) | MIC (N. gonorrhoeae FA19; FA19, read-out: MIC FA19) | pIC50 (N. gonorrhoeae PBP 2 [1]; [4]) | Compound (mP) (mean ± SD) (N. gonorrhoeae PBP 2 [2]) | Inhibition (%) of Bocillin-FL binding to PBP 2 (N. gonorrhoeae PBP 2 [2]) | MIC (N. gonorrhoeae 35/02; 35/02, read-out: MIC 35/02) | pIC50 (N. gonorrhoeae PBP 2 [3]; [5]) | pIC50 (N. gonorrhoeae PBP 2 [3]; [6]) | MIC (N. gonorrhoeae FA6140; FA6140, read-out: MIC FA6140) | MIC (N. gonorrhoeae FA19; [7]) | MIC (N. gonorrhoeae 35/02; [8]) | MIC (N. gonorrhoeae FA6140; [9]) | MIC (N. gonorrhoeae FA19; strain FA19, MIC given in µM, read-out: MIC FA19) | Covalent interaction with PBP 2 (mass of the protein) (PBP 2) | MIC (N. gonorrhoeae 35/02; strain 35/02, MIC given in µM, read-out: MIC 35/02) | pIC50 (N. gonorrhoeae PBP 2 [3]; IC50, SDS-PAGE assay, same IC50 given in µg/ml) | MIC (N. gonorrhoeae FA6140; strain FA6140, MIC given in µM, read-out: MIC FA6140)
1 | CC1(C)S[C@@H]2[C@H](NC(=O)Cc3ccccc3)C(=O)N2[C@H]1C(=O)O [Penicillin G, reference compound] | 6.00 | 5.85 |  |  |  |  |  |  |  |  |  |  |  |  |  |  |  | 
2 | O=c1sc2ccccc2c(O)c1C(c1ccccc1)c1c(O)c2ccccc2sc1=O [Compound 6] |  |  | 4 µg/mL | 4.29 | 54.6±3.2 mP | 89.5% | 8 µg/mL | 4.31 | 4.31 | 8 µg/mL |  |  |  |  |  |  |  | 
3 | O=Cc1cc(Cc2ccccc2)cc([N+](=O)[O-])c1O [Compound 2] |  |  |  | 3.48 | 60.4±20.3 mP | 85.8% |  | 3.89 | 3.89 |  | 4 µg/mL | 8 µg/mL | 16 µg/mL |  |  |  |  | 
4 | CCc1ccc(O)c(/N=C/c2cc(I)cc(I)c2O)c1 [Compound 1] |  |  |  | 3.94 | 31.4±0.1 mP | 108.2% |  | 3.66 | 3.65 |  | 4 µg/mL | 16 µg/mL | 16 µg/mL |  |  |  |  | 
5 | CN1C(=O)/C(=C2\SC(=S)NC2=O)c2cc(Br)ccc21 [Compound 7] |  |  |  | 4.95 | 45.2±20.2 mP | 96.6% |  | 3.82 | 3.82 |  | 2 µg/mL | 8 µg/mL | 8 µg/mL | 5.6 µM | no increase in mass of the protein was observed | 23.4 µM | 3.82 | 23.4 µM
6 | Sc1nnc(-c2ccc(Cl)cc2Cl)n1/N=C/C=C/c1ccco1 [Compound 3] |  |  |  | 3.89 | 65.7±12.4 mP | 81.8% |  | 3.05 |  |  | 16 µg/mL | 32 µg/mL | 32 µg/mL |  |  |  |  | 
7 | O=S(=O)(Nc1ccc(O)c2ccccc12)c1cccc2ccccc12 [Compound 4] |  |  |  | 4.29 | 35.6±2.1 mP | 105.4% |  | 4.30 | 4.30 |  | 16 µg/mL | 16 µg/mL | 16 µg/mL |  |  |  |  | 
8 | CCc1ccc(S(=O)(=O)Nc2ccc(O)c3ccccc23)cc1 [Compound 5] |  |  |  | 4.28 | 43.3±0.8 mP | 97.6% |  | 4.25 | 4.25 |  | 8 µg/mL | 16 µg/mL | 16 µg/mL |  |  |  |  | 
